Converted amounts (≈) assume the structure as drawn.

What all share (type): cell-based
In one test the test system is Staphylococcus aureus. Briefly: MIC by serial dilution (agar), Staphylococcus aureus. Conditions: 37° C., about 20 hours. The protocol: (§1) The minimum inhibitory concentrations (MICs) of the compounds according to the invention were determined by serial dilution methods on Iso-Sensitest agar (Oxoid). For each test substance a series of agar plates was, prepared, which plates contained decreasing concentrations of the active compound, with twofold dilution in each case. The agar plates were inoculated with a Multipoint inoculator (Denley). Inoculation was carried out using overnight cultures of the pathogens, which had been diluted beforehand so that each inoculation point contained about 10^4 colony-forming particles. The inoculated agar plates were incubated at 37° C., and the growth of the microorganisms was read off after about 20 hours. The MIC (μg/ml) indicates the lowest concentration of active compound at which no growth-could be perceived with the naked eye. In the table below, the MICs of some of the compounds according to the invention are listed.

The test system of another test is Micrococcus luteus. Briefly: MIC by serial dilution (agar), Micrococcus luteus. The following applies: strain 9341, Iso-Sensitest agar, 37° C., about 20 hours. The protocol: as §1
In another test the test system is Enterococcus faecalis. In words: MIC by serial dilution (agar), Enterococcus faecalis. The following applies: 20 h, 37° C., about 20 hours. As for the experimental part:
as §1

Where [1] appears, read: 20 h, strain 133, Iso-Sensitest agar.
[2] abbreviates: 20 h, strain ICB 25701, Iso-Sensitest agar.
The mark [3] stands for this setting: 20 h, strain ICB 25768, Iso-Sensitest agar.
The mark [4] stands for this setting: ATCC29123, 20 h, strain ATCC 29123, Iso-Sensitest agar.
[5] abbreviates: strain 27 101, Iso-Sensitest agar.
[6] abbreviates: strain 9790, Iso-Sensitest agar.

One may read the MIC as the lowest concentration found to suppress growth. As for `CNC1C=CCC2CN(c3c(F)cc4c(=O)c(C(=O)O)c5scc6n5c4c3N(C)C6)CC21` (stereo not drawn) [Example 3, 7-Fluoro-8-(2-methylamino-8-azabicyclo[4.3.0]non-3-en-8-yl)-5-oxo-9,1-[(N-methylimino)-methano]-5H-thiazolo-[3,2-a]quinoline-4-carboxylic acid], the minimum inhibitory concentration (MIC) against Staphylococcus aureus (setting [1]) is not above 0.015 µg/mL; in the test with Staphylococcus aureus (setting [2]) it was 0.125 µg/mL (≈ 0.275 µM); with Staphylococcus aureus (setting [3]), 0.25 µg/mL (≈ 0.55 µM); with Staphylococcus aureus (setting [4]), not above 0.015 µg/mL; against Micrococcus luteus, 0.125 µg/mL (≈ 0.275 µM); against Enterococcus faecalis (setting [5]), 0.125 µg/mL (≈ 0.275 µM). In addition, inhibition of growth in the test with Enterococcus faecalis (setting [6]) (MIC) required 0.125 µg/mL (≈ 0.275 µM).

For `CC1C=CC(N)C2CN(c3c(F)cc4c(=O)c(C(=O)O)c5scc6n5c4c3N(C)C6)CC12` (stereo not drawn) [Example 5, 8-(2-Amino-5-methyl-8-azabicyclo[4.3.0]non-3-en-8-yl)-7-fluoro-5-oxo-9,1-[(N-methylimino)methano]-5H-thiazolo-[3,2-a]quinoline-4-carboxylic acid], the MIC is not above 0.015 µg/mL in the test on Staphylococcus aureus (setting [1]); 0.125 µg/mL (≈ 0.275 µM) in the test on Staphylococcus aureus (setting [2]); 0.5 µg/mL (≈ 1.1 µM) against Staphylococcus aureus (setting [3]); not above 0.015 µg/mL in the test on Staphylococcus aureus (setting [4]); 0.062 µg/mL (≈ 0.136 µM) in the test with Micrococcus luteus; 0.062 µg/mL (≈ 0.136 µM) with Enterococcus faecalis (setting [5]). For the same compound, the MIC in the test on Enterococcus faecalis (setting [6]) was 0.062 µg/mL (≈ 0.136 µM).

For `CNCC1C=CCC2CN(c3c(F)cc4c(=O)c(C(=O)O)c5scc6n5c4c3N(C)C6)CC12` (stereo not drawn) [Example 7, 7-Fluoro-8-(2-methylamonomethyl-8-azabicyclo[4.3.0]non-3-en-8-yl)-5-oxo-9,1-[(N-methylimino)-methano]-5H-thiazolo-[3,2-a]quinoline-4-carboxylic acid], the MIC against Staphylococcus aureus (setting [1]) was not above 0.015 µg/mL; against Staphylococcus aureus (setting [2]), 0.25 µg/mL (≈ 0.534 µM); against Staphylococcus aureus (setting [3]) it was 1 µg/mL (≈ 2.13 µM); against Staphylococcus aureus (setting [4]) it was not above 0.015 µg/mL; with Micrococcus luteus, 0.25 µg/mL (≈ 0.534 µM); against Enterococcus faecalis (setting [5]) it was 0.126 µg/mL (≈ 0.269 µM). Also, in the test on Enterococcus faecalis (setting [6]), the MIC is 0.125 µg/mL (≈ 0.267 µM).
